Data set [1] in a line: solubility behavior of mandelide in neutral, acid and alkaline aqueous solution, visual inspection. Particulars: 2% by weight mandelide, 20° C., stirred. Format: physicochemical. The text has this:
In additional experiments according to the present invention, the lactide was replaced by mandelide, the cyclic diester of 2-hydroxy-2-phenylacetic acid (also known as mandelic acid). The solubility behavior of mandelide in a neutral solution, an acid solution and an alkaline solution has been monitored and mutually compared. For this purpose, the acid aqueous solution was made by dissolving 10% by weight of mandelic acid in water. An alkaline aqueous solution was made by adding NaOH until a pH of 13 was reached. The neutral aqueous solution consisted of pure, non-buffered water. To these three aqueous solutions, an amount of 2% by weight of mandelide was added. All solutions were kept at 20° C. and stirred for several hours. In this period of time, the solubility behavior of the mandelide in the aqueous solutions was followed by visual inspection.

A short description of data set [2]: formation of lactide precipitates in circulating aqueous washing solution contacted with lactide-containing vapor.
Text: In a first experiment according to the invention, a vapor which contains lactide (i.e. the dehydrated cyclic diester of lactic acid or 2-hydroxy propanoic acid) is guided via vapor inlet pipeline 1 into wet washing column 2 shown in FIG. 1. […] Column 2 comprises packed bed 3, which extends over the whole internal diameter of the column. The column is further equipped with a vapor outlet pipeline 4 and a liquid distributor 5. The vapor travels through packed bed 3 and exits the column via vapor outlet pipeline 4. […] Pump 6 further sucks the vapor containing the cyclic diester, such as lactide, from inlet pipeline 1, through column 2, packed bed 3 and outlet line 4 to an exhaust collection system (not shown).
Column 2 further comprises a liquid storage compartment 7, which contains an aqueous solution. Additional liquid can be introduced in compartment 7 via liquid inlet pipeline 8. […] This solution is circulated through a liquid circulation system comprising liquid circulation pipeline 9, which circulation is powered by liquid pump 10. In practice, the aqueous solution is pumped from the liquid storage compartment 7 via pipeline 9 and heat exchanger 11 to liquid distributor 5. In distributor 5, the alkaline solution is converted from a liquid stream into small droplets. These droplets fall onto and distribute over the upper surface 12 of packed bed 3. Due to gravity, the droplets of the aqueous solution travel through packed bed 3 and fall in the aqueous solution present in storage compartment 7. The size of compartment 7 depends on residence time required under the operation conditions used.
During the whole experiment, the pH of the solution was maintained above 10. This was achieved by the addition of a base. In the present experiment, sodium hydroxide was used as the base. It appeared to be advantageous to add the base continuously, preferably in liquid form. For this experiment, a commercially available stock solution of 50 w/w-% of NaOH in water (Brenntag, technical grade) was used. […]

Molecules are shown by their SMILES.

With `O=C1OC(c2ccccc2)C(=O)OC1c1ccccc1` (stereo not drawn) [mandelide], the “mandelide dissolved after 60 minutes” value in data set [1] (acid solution (10% by weight mandelic acid in water)) was “almost all of the added mandelide was still not dissolved”; in data set [1] (neutral solution (pure, non-buffered water)), “not been dissolved at all”. Further, the “added mandelide dissolved after 60 minutes” value in data set [1] (alkaline solution (NaOH, pH 13)) is given as “approximately 50%”.

As for `CC1OC(=O)C(C)OC1=O` (stereo not drawn) [lactide], the lactide precipitates result in data set [2] (alkaline aqueous solution, above pH 10, NaOH, around 15° C., approximately 15 mbar) is listed as “no lactide precipitates have been observed”; in data set [2] (alkaline aqueous solution, pH between 7 and 10) it was “formation of small lactide precipitates can occur”; in data set [2] (comparative: starting pH approximately 7, no base, pH drops below 4), “part of the dissolved lactide precipitates”.
